Measurements published in patent US7605265B2, “Heterodimers and methods of using them” (priority 2007, dated 2009).

Experiments:
[1] = target: T1, acetylcholinesterase (AChE) (Rattus norvegicus, UniProt P37136); experiment: In vitro inhibition of AChE (cholinesterase assay, Ellman method); assay type: biochemical
T1 construct: from tissue; host or cells: rat brain cortex
T1 sequence (P37136 32-614): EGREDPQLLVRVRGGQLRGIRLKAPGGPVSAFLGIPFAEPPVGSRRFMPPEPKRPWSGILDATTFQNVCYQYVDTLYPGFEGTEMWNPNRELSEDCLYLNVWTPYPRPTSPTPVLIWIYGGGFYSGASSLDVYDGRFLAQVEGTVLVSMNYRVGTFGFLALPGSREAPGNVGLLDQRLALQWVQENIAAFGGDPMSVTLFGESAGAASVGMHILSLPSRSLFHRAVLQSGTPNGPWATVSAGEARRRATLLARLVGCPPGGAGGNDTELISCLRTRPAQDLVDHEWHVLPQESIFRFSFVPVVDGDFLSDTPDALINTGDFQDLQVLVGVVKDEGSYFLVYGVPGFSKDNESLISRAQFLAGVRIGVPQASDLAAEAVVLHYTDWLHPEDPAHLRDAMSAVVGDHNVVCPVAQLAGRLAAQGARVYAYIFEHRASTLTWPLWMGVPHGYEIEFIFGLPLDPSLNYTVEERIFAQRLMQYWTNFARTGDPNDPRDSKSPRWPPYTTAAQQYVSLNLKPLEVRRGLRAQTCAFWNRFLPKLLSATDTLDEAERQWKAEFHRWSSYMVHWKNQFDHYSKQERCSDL
Experimental: The in vitro inhibition of the enzymes acetylcholinesterase (AChE) and butyrylcholinesterase (BChE) were assessed. BChE, like AChE, breaks down acetylcholine (ACh) but is found in plasma and other organs such as the liver, skin and gastrointestinal tract.
The enzymes, AChE and BChE, used in the inhibition studies were prepared from the cortex and serum of decapitated rats, respectively.

[2] = target: T2, butyrylcholinesterase (BChE) (Rattus norvegicus, UniProt Q9JKC1); experiment: biochemical
T2 construct: from tissue; host or cells: rat serum
T2 sequence (Q9JKC1 24-597): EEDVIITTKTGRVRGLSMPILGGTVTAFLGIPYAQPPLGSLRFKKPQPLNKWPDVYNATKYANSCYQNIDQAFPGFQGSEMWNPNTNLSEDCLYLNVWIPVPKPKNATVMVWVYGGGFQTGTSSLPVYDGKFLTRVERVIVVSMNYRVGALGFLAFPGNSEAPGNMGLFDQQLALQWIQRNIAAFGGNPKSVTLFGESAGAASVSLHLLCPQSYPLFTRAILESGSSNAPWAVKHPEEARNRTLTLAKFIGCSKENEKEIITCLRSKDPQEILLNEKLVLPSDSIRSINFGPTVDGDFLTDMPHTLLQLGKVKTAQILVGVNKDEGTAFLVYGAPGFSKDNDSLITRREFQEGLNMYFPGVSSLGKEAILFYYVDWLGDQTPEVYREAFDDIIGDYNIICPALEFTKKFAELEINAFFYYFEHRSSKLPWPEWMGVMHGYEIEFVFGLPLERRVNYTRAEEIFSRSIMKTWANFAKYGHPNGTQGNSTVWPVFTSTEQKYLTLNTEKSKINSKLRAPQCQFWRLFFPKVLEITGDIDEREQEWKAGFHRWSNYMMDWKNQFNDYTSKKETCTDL

[3] = tested on: scopolamine-induced memory impaired rats; experiment: Morris water maze, scopolamine-induced memory impairment; assay type: in vivo, rat; details: tacrine 1.5 mg/kg, scopolamine 0.1 mg/kg i.p.
Experimental: The Morris water maze consists of a water pool with a hidden, submerged escape platform. The rats must learn, over a period of consecutive days, the location of the platform using either contextual or local cues. The time taken to locate the hidden platform (escape latency) is a measure of the animal's cognitive abilities.
(§1) Scopolamine (0.1 mg/kg) was first i.p. administered to young adult rats to impair their memories. Scopolamine-induced memory impaired rats were then orally administered one of three different doses of compound B (0.025, 0.050, or 0.100 mg/kg) and subjected to the Morris water maze over a period of 4 days. On each day, the time taken for the rats to detect the hidden platform in the water maze was measured, in seconds.
as §1, with “C (0.1, 0.2,” for “B (0.025, 0.050,”, “0.4” for “0.100”
as §1, with “A (0.1, 0.2,” for “B (0.025, 0.050,”, “0.4” for “0.100”
A spatial bias (% of total distance swum in the training quadrant during spatial probe trial) for the region of the apparatus where the platform was positioned during training was also measured for compounds B and C.
The spatial bias for the region of the testing apparatus where the hidden platform was positioned during training was measured. […] Tacrine (THA) was included for comparison purposes.

SMILES	Selectivity AchE* ([1]; IC50 (BChE)/IC50 (AChE))	IC50 ([1]; enzyme prepared from rat cortex) [nM]	IC50 [2] [nM]	escape latency, compared with the novel compound [3]
O=c1ccc2c([nH]1)CCCC2NCCCCCCCCNc1c2c(nc3ccccc13)CCCC2 (stereo not shown) [Compound D]	31.52	13.6 ± 1.76	430 ± 46.7	
Nc1c2c(nc3ccccc13)CCCC2 [Tacrine, reference compound]				less effective in shortening escape latency
